The values that follow come from ChEMBL document CHEMBL1123701, “Synthesis and quantitative structure-activity relationship analysis of N-triiodoallyl- and N-iodopropargylazoles. New antifungal agents” (1987).

Converted amounts (≈) assume the structure as drawn. Where only a bound is given, the exact number is not on record here.

One test has as its system Aspergillus fumigatus. Put plainly: Antifungal activity against Aspergillus fumigatus Saito strain. It is filed as functional.
The subject of test [1] is Trichophyton interdigitale. Nature of the test: Antifungal activity towards Trichophyton interdigitale. It is filed as functional.
The test system of the next test is Candida albicans. Put plainly: Antifungal activity against Candida albicans C-A-24 strain. It is filed as functional.
A further test concerns Cryptococcus neoformans. Put plainly: Antifungal activity against Cryptococcus neoformans Cr-1 strain. It is filed as functional.
A further test deals with Trichophyton benhamiae. Nature of the test: Antifungal activity towards Trichophyton mentagrophytes 530324 strain. It is filed as functional, Arthroderma benhamiae.

On to `IC(I)=C(I)Cn1nccn1`, for which the MIC is 0.39 µg/mL (≈ 0.801 µM) against Aspergillus fumigatus; 0.39 µg/mL (≈ 0.801 µM) in test [1]; 0.78 µg/mL (≈ 1.6 µM) with Candida albicans; 1.56 µg/mL (≈ 3.2 µM) in the test on Cryptococcus neoformans; 0.2 µg/mL (≈ 0.411 µM) against Trichophyton benhamiae.

Take `IC#CCn1nnnc1Cc1ccccc1`: the minimal inhibitory concentration (MIC) was 1.56 µg/mL (≈ 4.81 µM) with Aspergillus fumigatus; 0.39 µg/mL (≈ 1.2 µM) in test [1]; 12.5 µg/mL (≈ 38.6 µM) with Candida albicans; 12.5 µg/mL (≈ 38.6 µM) against Cryptococcus neoformans; 0.78 µg/mL (≈ 2.41 µM) in the test on Trichophyton benhamiae.

On to `IC(I)=C(I)Cn1ncnn1`, for which the MIC in the test on Aspergillus fumigatus was found to be 0.2 µg/mL (≈ 0.41 µM); in test [1] it was 0.1 µg/mL (≈ 0.205 µM); against Candida albicans it was 0.2 µg/mL (≈ 0.41 µM); with Trichophyton benhamiae, 0.1 µg/mL (≈ 0.205 µM).

In the case of `CCCCCc1nnnn1CC#CI`, the minimal inhibitory concentration (MIC) in the test on Aspergillus fumigatus was 0.39 µg/mL (≈ 1.28 µM); in test [1], 0.1 µg/mL (≈ 0.329 µM); against Candida albicans it was 3.13 µg/mL (≈ 10.3 µM); against Cryptococcus neoformans, 3.13 µg/mL (≈ 10.3 µM); in the test with Trichophyton benhamiae it was 0.2 µg/mL (≈ 0.658 µM).

For `IC(I)=C(I)Cn1nnc(-c2ccccc2)n1`, the minimal inhibitory concentration (MIC) in test [1] came to 3.13 µg/mL (≈ 5.55 µM); with Candida albicans, 12.5 µg/mL (≈ 22.2 µM); with Trichophyton benhamiae, 1.56 µg/mL (≈ 2.77 µM).

As to `CCc1nnn(CC(I)=C(I)I)n1`, the MIC is 0.2 µg/mL (≈ 0.388 µM) against Aspergillus fumigatus; 0.1 µg/mL (≈ 0.194 µM) in test [1]; 0.78 µg/mL (≈ 1.51 µM) in the test with Candida albicans; 0.78 µg/mL (≈ 1.51 µM) in the test on Cryptococcus neoformans; 0.2 µg/mL (≈ 0.388 µM) in the test on Trichophyton benhamiae.

`CC(C)c1nnnn1CC(I)=C(I)I` registered an MIC with Trichophyton benhamiae of 3.13 µg/mL (≈ 5.91 µM).

Turning to `CCCCCCCc1nnnn1CC(I)=C(I)I`, the MIC is 0.1 µg/mL (≈ 0.171 µM) in test [1], above 25 µg/mL against Candida albicans, above 25 µg/mL in the test with Cryptococcus neoformans and 0.1 µg/mL (≈ 0.171 µM) against Trichophyton benhamiae.

For `Cc1ccc(-c2nnn(CC#CI)n2)cc1`, in the test with Trichophyton benhamiae, it took 0.2 µg/mL (≈ 0.617 µM) to inhibit growth (MIC).

Regarding `Cc1nnnn1CC(I)=C(I)I`, the MIC was found to be 3.13 µg/mL (≈ 6.24 µM) in the test on Candida albicans and 0.78 µg/mL (≈ 1.55 µM) in the test on Trichophyton benhamiae.

Take `CC(C)c1nnn(CC(I)=C(I)I)n1`: the MIC against Candida albicans is 6.25 µg/mL (≈ 11.8 µM); in the test with Trichophyton benhamiae, 0.78 µg/mL (≈ 1.47 µM).

Consider `COc1ccc(-c2nnn(CC(I)=C(I)I)n2)cc1`, for which the MIC is 25 µg/mL (≈ 42.1 µM) in the test on Aspergillus fumigatus; above 100 µg/mL in test [1]; above 100 µg/mL against Candida albicans; above 100 µg/mL with Cryptococcus neoformans; 25 µg/mL (≈ 42.1 µM) in the test with Trichophyton benhamiae.

Consider `CC(C)(C)c1nnn(CC(I)=C(I)I)n1`, for which the MIC was above 25 µg/mL against Candida albicans, above 25 µg/mL in the test on Cryptococcus neoformans and 0.39 µg/mL (≈ 0.717 µM) with Trichophyton benhamiae.

Take `CCCc1nnnn1CC(I)=C(I)I`: the MIC (in test [1]; against Trichophyton benhamiae) was 0.1 µg/mL (≈ 0.189 µM) in each case.

As to `CCCCCc1nnn(CC#CI)n1`, the MIC turned out to be 0.78 µg/mL (≈ 2.56 µM) with Aspergillus fumigatus, 0.1 µg/mL (≈ 0.329 µM) in test [1] and 0.1 µg/mL (≈ 0.329 µM) against Trichophyton benhamiae.

As for `O=[N+]([O-])c1ccn(CC(I)=C(I)I)c1`, the MIC against Aspergillus fumigatus, with Candida albicans and in the test on Trichophyton benhamiae was 0.2 µg/mL (≈ 0.377 µM) throughout.

`COc1ccc(-c2nnn(CC#CI)n2)cc1`: the MIC in test [1] is 0.1 µg/mL (≈ 0.294 µM); in the test with Cryptococcus neoformans, 25 µg/mL (≈ 73.5 µM); against Trichophyton benhamiae it was 0.1 µg/mL (≈ 0.294 µM).

For `Cc1nnn(CC(I)=C(I)I)n1`, the MIC against Aspergillus fumigatus is 0.39 µg/mL (≈ 0.777 µM); in test [1] it was 0.2 µg/mL (≈ 0.399 µM); with Candida albicans, 0.78 µg/mL (≈ 1.55 µM); against Trichophyton benhamiae it was 0.2 µg/mL (≈ 0.399 µM).

Consider `Clc1ccc(-c2nnnn2CC#CI)cc1`, for which the MIC against Aspergillus fumigatus came out at 0.39 µg/mL (≈ 1.13 µM); in test [1], 0.39 µg/mL (≈ 1.13 µM); with Candida albicans, 1.56 µg/mL (≈ 4.53 µM); against Trichophyton benhamiae it was 0.2 µg/mL (≈ 0.58 µM).

For `CCCc1nnn(CC#CI)n1`, the MIC (in the test on Aspergillus fumigatus; in test [1]; in the test with Trichophyton benhamiae) was 0.1 µg/mL (≈ 0.362 µM) in each case.

On to `IC(I)=C(I)Cn1ccnc1`, for which the minimum inhibitory concentration (MIC) turned out to be 1.56 µg/mL (≈ 3.21 µM) against Aspergillus fumigatus, 3.13 µg/mL (≈ 6.44 µM) in test [1], 1.56 µg/mL (≈ 3.21 µM) in the test on Candida albicans and 1.56 µg/mL (≈ 3.21 µM) against Trichophyton benhamiae.

In the case of `IC(I)=C(I)Cn1cnnn1`, the minimal inhibitory concentration (MIC) in the test on Candida albicans amounted to 3.13 µg/mL (≈ 6.42 µM); against Cryptococcus neoformans, 3.13 µg/mL (≈ 6.42 µM); in the test on Trichophyton benhamiae it was 0.39 µg/mL (≈ 0.799 µM).

Consider `CCCCCc1nnnn1CC(I)=C(I)I`, for which the values for the minimum inhibitory concentration (MIC) (in test [1]; in the test with Cryptococcus neoformans; with Trichophyton benhamiae) were 0.1 µg/mL (≈ 0.179 µM), above 25 µg/mL and 0.1 µg/mL (≈ 0.179 µM), respectively.

For `O=[N+]([O-])c1nccn1CC(I)=C(I)I`, the MIC with Candida albicans and in the test with Trichophyton benhamiae was 0.78 µg/mL (≈ 1.47 µM) throughout.

As to `CCCCCCCc1nnn(CC(I)=C(I)I)n1`, the MIC is 12.5 µg/mL (≈ 21.3 µM) in the test with Candida albicans and 0.78 µg/mL (≈ 1.33 µM) in the test on Trichophyton benhamiae.

`Clc1ccc(-c2nnn(CC#CI)n2)cc1`: the MIC in test [1] amounted to 0.2 µg/mL (≈ 0.58 µM); in the test with Trichophyton benhamiae, 0.1 µg/mL (≈ 0.29 µM).

Take `CCCCCc1nnn(CC(I)=C(I)I)n1`: the MIC in test [1] came out at 0.2 µg/mL (≈ 0.358 µM); with Trichophyton benhamiae it was 0.1 µg/mL (≈ 0.179 µM).
